In brackets after ≈: the same amount, converted by molar mass.
How the values were obtained:
[1] = tested on: WI-38 cells; assay: cells; settings: Homo sapiens, WI-38, 96 h
Description: (§1) Further, a proliferation test was prepared for the same three cell lines: WI-38, A549 and HS 683. 3x10^4 WI-38 cells and 2x10^4 A549 and HS 683. Cells were seeded into each wells in 96-well culture plates in appropriate culture medium with 10% FBS (fetal bovine serum). […] After 96 hours incubation in 37°C/5%CO2 MTT assay was performed for establishing the cell viability.

[2] = tested on: HS-683; assay: cells; settings: Homo sapiens, Hs 683, 96 h
Description: as §1

[3] = tested on: A549 cells; assay: cells; settings: Homo sapiens, A549, 96 h
Description: as §1

[4] = tested on: human PBLs; settings: human leukocytes, 48 hours, MTT
Description: (§4) Thereby, cell viability was determined on the basis of the mitochondria-dependent reduction of MTT (3-[4,5-dimethyltiazol 2yl]-2,5-diphenyltetrazolium bromide) to formazan. […] Next cells were treated with 20 µl of MTT. After 3 hours of incubation at 37°C, the formazan blue formed in the cells was dissolved in 100 µl of SDS (sodium dodecylsulfate) for 3 hours in 37°C. The optical density was measured at 570 nm.
(§5) After the cytotoxicity tests LC50 (LCso-lethal concentration, 50%-dose required to kill half of the cells after a specified test duration) were estimated for each cell lines and PBLs (leukocytes of peripheral blood). Additionally for PBLs LC10 and LC5 were calculated.

[5] = tested on: H1N1 virus; settings: H1N1 infected chicken, 0,002 mg/kg each 24 hours, 24 hours after treatment, versus control group
[6] = rats given 4,5 mg/kg of mercury (HgHCI); treatment of 0,0937 mg/ml; without treatment 6 in 8 rats died
[7] = in vivo
Description: Thereby the healing process of a human ulcer is examined as a basic condition.

[8] = in vitro; settings: human, peripheral blood leukocytes
Description: as §4, §5

[9] = tested on: TNF-α production
Description: (§2) After 24 hours of incubation in 37°C/5%CO2 samples of leukocytes and supernatants were collected.
(§3) Cytokine levels were determined using ELISA kits (BD Biosciences, USA) for human IFNγ, TNF-α and IL-6 and DuoSet for human IL-3 (R&D Systems, USA) according to the producers' instructions. The optical density was measured at 450 nm using a Multiskan RC spectrophotometric reader (Thermo Labsystems, USA), Cytokine concentrations were expressed in pg/ml.

[10] = tested on: IFN-γ production
Description: as §2, §3

[11] = tested on: IL-6 production
Description: as §2, §3

[12] = read-out: concentration that inhibits 50% of the proliferation

Question: For `CN1CCC[C@H]1c1cccnc1`, which IC50 [1, 12] is on record?
Answer: 1000 µg/mL (≈ 6.16 mM)

Question: And the IC99 ([1]; read-out: concentration that inhibits a proliferation of 99%)?
Answer: 4500 µg/mL

Question: What about the IC99 ([2]; read-out: concentration at which 99% of proliferation are inhibited) of the same compound?
Answer: 5500 µg/mL

Question: What about the IC50 [2, 12] of the same compound?
Answer: 2900 µg/mL (≈ 17.9 mM)

Question: And the IC50 [3, 12]?
Answer: 2000 µg/mL (≈ 12.3 mM)

Question: What about the IC99 ([3]; read-out: concentration that inhibits 99% of the proliferation) of the same compound?
Answer: 5500 µg/mL

Question: And the LC5 [4]?
Answer: 0,5 mg/ml

Question: What about the LC10 [4] of the same compound?
Answer: 1000 µg/mL (≈ 6.16 mM)

Question: What about the egg production [5] of the same compound?
Answer: began to lay off eggs

Question: What about the mortality [6] of the same compound?
Answer: 0,625 of 8 rats

Question: And the “healing effect on ulcer” value [7]?
Answer: increased healing effect

Question: And the CC50 at 48 h [8]?
Answer: 7000 µg/mL (≈ 43.1 mM)

Question: What about the “effect on TNF-α production” value [9] of the same compound?
Answer: increases the level of cytokines in a dose-dependent manner

Question: What about the “effect on IFN-γ production” value [10] of the same compound?
Answer: strongly decreases the level of interferon in a dose-dependent manner

Question: And the “effect on IL-6 production” value [11]?
Answer: no effect
